According to patent publication US10556907B2 (AbbVie Inc., priority 2015, dated 2020):

Experiments:
[1] = in vivo; cited from earlier work
human S1PR4 receptor = target: T1, human S1PR4 receptor (Homo sapiens, UniProt O95977); test: Method 1: intracellular Ca2+ release (FLIPR, Calcium 5) in recombinant CHO-K1 cells; assay type: cell-based; details: (1): determined with method 1; read-out: S1P4 EC50
T1 construct: host or cells: CHO-K1
T1 sequence (O95977 1-384): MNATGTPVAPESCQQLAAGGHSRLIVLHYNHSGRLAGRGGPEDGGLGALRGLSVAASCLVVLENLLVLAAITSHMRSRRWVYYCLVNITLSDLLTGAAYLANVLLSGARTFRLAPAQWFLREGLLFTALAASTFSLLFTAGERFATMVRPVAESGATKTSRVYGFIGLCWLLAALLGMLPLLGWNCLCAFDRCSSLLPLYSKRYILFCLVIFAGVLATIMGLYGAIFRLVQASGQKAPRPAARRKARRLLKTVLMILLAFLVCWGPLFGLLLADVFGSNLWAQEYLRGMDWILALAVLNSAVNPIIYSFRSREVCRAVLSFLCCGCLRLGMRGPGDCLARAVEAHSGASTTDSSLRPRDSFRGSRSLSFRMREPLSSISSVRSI
Summary of the method: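 Potency here reflects Ca2+ release in recombinant CHO-K1 cells carrying Gq/i5, measured by Calcium 5 fluorescence on FLIPR at RT in pH 7.4 Hepes-buffered HBSS with probenecid. EC50 values were fitted after scaling to phospho-fingolimod.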

[2] = target: T2, human EDG8 (S1PR5) receptor (Homo sapiens, UniProt Q9H228); test: Method 2: Aequorin assay, cell clone CHO-A21-EDG8 #12; assay type: cell-based; details: agonist potency, determined with method 2 (symbols E-G); read-out: S1P5 EC50 range
T2 construct: expressed in transfected cells; host or cells: CHO (clone CHO-A21-EDG8 #12)
Procedure: (§1) Agonistic activity was measured using two different methods, described below.
(§2) Genetically Engineered Cells
(§3) Cell clone CHO-A21-Edg1 #17 carries the transgenes human EDG1 (S1PR1) receptor (Accession number NP_001391.2), mitochondrially targeted Aequorin (active part corresponds to accession number 1SL8_A) and chimaeric Gaqi5=Gaq modified with the 5 C-terminal amino-acids replaced with those of the Gai protein (DCGLF). CHO-A2-S1P3 Mix is a cell pool ectopically expressing human EDG3 (S1PR3) receptor (Accession number NP_005217.2) mitochondrially targeted Aequorin (active part has a sequence similar to accession number AY601106.1) and GNA16 (Accession number NP_002059.3). Cell clone CHO-A21-EDG8 #12 carries the transgenes human EDG8 (S1PR5) receptor (Accession number NP_110387.1), mitochondrially expressed Aequorin (active part corresponds to accession number 1SL8_A) and chimaeric Gaqi5 (Gaq modified to present the 5 last amino-acids of the Gai protein “DCGLF”; see above). Cells are grown to mid-log phase in culture medium (HAM's F12, 10% FBS, 100 IU/mL penicillin, 100 μg/mL streptomycin, 250 μg/mL Zeocin, 400 μg/mL G418). 18 hours prior to frozen cells preparation, the medium is changed to remove the antibiotics.
(§4) 18 hours prior to the test, vials of frozen cells are quickly thawed in a 37° C. water bath, cells are recovered by centrifugation and resuspended in assay buffer (DMEM/HAM's F12 with HEPES, without phenol red+0.1% fatty acid-free BSA). Cells are gently agitated in suspension overnight at RT in presence of 5 μM of Coelenterazine h (Molecular Probes). On the day of the test, cells are diluted to their final working concentrations in assay buffer and agitated in suspension for 1 h at RT. Cells are then placed in the luminescence reader (Hamamatsu Functional Drug Screening System 6000, FDSS6000). During cells incubation, compounds are prepared in 100% DMSO, and subsequently diluted in assay buffer. Compounds are then dispensed in the assay plate (black, clear-bottom, 384-well plate). After binding of agonists to the human S1P receptor the intracellular calcium concentration increases and binding of calcium to the Aequorin/Coelenterazine complex leads to an oxidation reaction of coelenterazine, which results in the production of […], coelenteramide, CO2 and light (Dmax 469 nm). The luminescent response is dependent on the agonist concentration. For agonist testing, 30 μL of cell suspension are injected on 30 μL of test compound or reference agonist in the assay plate. The resulting emission of light is recorded for 90 seconds using the FDSS6000. Dose response curves with the reference compounds are performed before testing the compounds. S1P is the reference agonist and JTE-013 the reference antagonist for S1P2. […]
(§5) Luminescence data are integrated over the reading interval for agonist and antagonist modes. To standardize the emission of recorded light (determination of the “100% signal”) across plates and across different experiments, some of the wells contain 100 μM digitonin or a saturating concentration of ATP (20 μM). Plates also contain the reference agonist at a concentration equivalent to the EC80 obtained during the test validation and the EC100. Dose-response data from test compounds were analyzed with XLfit (IDBS) software using nonlinear regression applied to a sigmoidal dose-response model and the following equation: • XL Fit fit Model 203: 4 Parameter Logistic Model • A: Bottom • B: TOP • C: LogEC50 • D: Hill fit=(A+((B−A)/(1+(((10^C)/x)^D)))) inv=((10^C)/((((B−A)/(y−A))−1)^(1/D))) res=(y−fit)

[3] = target: T3, human EDG1 (S1PR1) receptor (Homo sapiens, UniProt P21453); test: Method 2: Aequorin assay, cell clone CHO-A21-Edg1 #17; assay type: cell-based; details: (2): determined with method 2; read-out: S1P1 EC50
T3 construct: expressed in transfected cells; host or cells: CHO (clone CHO-A21-Edg1 #17)
Procedure: as §1, §2, §3, §4, §5

[4] = target: T4, human EDG3 (S1PR3) receptor (Homo sapiens, UniProt Q99500); test: Method 2: Aequorin assay, cell pool CHO-A2-S1P3 Mix; assay type: cell-based; details: (2): determined with method 2
T4 construct: expressed in transfected cells; host or cells: CHO (cell pool CHO-A2-S1P3 Mix)
Procedure: as §1, §2, §3, §4, §5

monocytes = details: cited from earlier work
[5] = in vivo; cited from earlier work; remark: listed apart in the source

T2 sequence (Q9H228 whole entry): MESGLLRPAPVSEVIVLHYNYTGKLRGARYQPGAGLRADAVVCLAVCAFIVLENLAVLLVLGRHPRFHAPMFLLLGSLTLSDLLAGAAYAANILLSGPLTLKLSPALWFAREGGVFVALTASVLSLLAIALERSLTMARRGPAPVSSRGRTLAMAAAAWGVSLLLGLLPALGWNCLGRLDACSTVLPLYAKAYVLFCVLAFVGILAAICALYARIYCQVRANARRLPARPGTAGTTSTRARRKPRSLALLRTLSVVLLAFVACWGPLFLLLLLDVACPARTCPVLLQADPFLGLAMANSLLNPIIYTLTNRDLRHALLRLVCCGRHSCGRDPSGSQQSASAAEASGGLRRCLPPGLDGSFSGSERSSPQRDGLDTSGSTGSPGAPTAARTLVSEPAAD
T4 sequence (Q99500 whole entry): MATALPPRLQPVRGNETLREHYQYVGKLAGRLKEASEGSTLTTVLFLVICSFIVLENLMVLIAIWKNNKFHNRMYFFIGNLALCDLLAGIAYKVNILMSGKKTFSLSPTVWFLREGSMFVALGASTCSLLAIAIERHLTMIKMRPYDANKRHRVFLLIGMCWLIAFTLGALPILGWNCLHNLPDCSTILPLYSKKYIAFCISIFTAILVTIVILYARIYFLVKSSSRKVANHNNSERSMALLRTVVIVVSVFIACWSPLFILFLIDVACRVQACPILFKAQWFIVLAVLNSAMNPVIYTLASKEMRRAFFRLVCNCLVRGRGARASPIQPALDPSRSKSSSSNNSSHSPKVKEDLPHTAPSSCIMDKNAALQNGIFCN
T3 sequence (P21453 whole entry): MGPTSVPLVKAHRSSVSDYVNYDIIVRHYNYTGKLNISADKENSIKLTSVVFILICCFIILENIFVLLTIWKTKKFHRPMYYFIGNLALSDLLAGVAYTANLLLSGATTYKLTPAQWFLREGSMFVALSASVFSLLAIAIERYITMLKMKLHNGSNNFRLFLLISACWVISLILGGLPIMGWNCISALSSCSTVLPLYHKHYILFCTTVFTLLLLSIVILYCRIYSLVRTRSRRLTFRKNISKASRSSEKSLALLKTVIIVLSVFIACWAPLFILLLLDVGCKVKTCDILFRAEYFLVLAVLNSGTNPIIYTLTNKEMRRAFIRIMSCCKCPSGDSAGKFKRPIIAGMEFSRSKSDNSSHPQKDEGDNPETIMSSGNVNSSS

Structure (SMILES)	EC50 (human S1PR4 receptor)	EC50 [2]	EC50 [3]	EC50 [4]	nociceptive behavior in neuropathic pain models [1]	Aβ-induced migration of monocytes to sites of injury (monocytes)	Aβ-induced memory deficits [5]
FC(F)(F)c1cccc(-c2noc(-c3cc(-c4ccccc4)c(C(F)(F)F)s3)n2)c1 [SEW2817]	–	–	–	–	fails to have an effect	–	–
O=C(O)C1CC(N2CCc3nc(-c4ccc(OCc5cccc(F)c5)cc4)ncc3C2)C1 (centres unmarked) [Compound 52, 3-(2-(4-((3-fluorobenzyl)oxy)phenyl)-7,8-dihydropyrido[4,3-d]pyrimidin-6(5H)-yl)cyclobutanecarboxylic acid]	> 1000 nM	1000 to 10000 nM	> 1000 nM	> 1000 nM	–	–	–
CCCCCCCCc1ccc(CCC(N)(CO)CO)cc1 [FTY720/FIngolimod]	–	–	–	–	able to reduce nociceptive behavior	inhibits such migration	able to modulate Aβ-induced memory deficits
CC(CN1CCc2nc(-c3ccc(OCc4ccccc4)cc3)ccc2C1)C(=O)O (centres unmarked) [Compound 101, 3-(2-(4-(benzyloxy)phenyl)-7,8-dihydro-1,6-naphthyridin-6(5H)-yl)-2-methylpropanoic acid]	–	100 to 1000 nM	> 1000 nM	> 1000 nM	–	–	–

Second part, led by results:

EC50 (human S1PR4 receptor)	EC50 [2]	EC50 [3]	EC50 [4]	Structure (SMILES)	nociceptive behavior in neuropathic pain models [1]	Aβ-induced migration of monocytes to sites of injury (monocytes)	Aβ-induced memory deficits [5]
–	1000 to 10000 nM	> 1000 nM	> 1000 nM	O=C(O)CCN1CCc2nc(-c3ccc(OCc4ccccc4)cc3C(F)(F)F)ccc2C1 [Compound 136, 3-(2-(4-(benzyloxy)-2-trifluoromethylphenyl)-7,8-dihydro-1,6-naphthyridin-6(5H)-yl)propanoic acid]	–	–	–
–	1000 to 10000 nM	> 1000 nM	> 1000 nM	CC(CN1Cc2ccc(-c3ccc(OCc4ccccc4)cc3)nc2C1)C(=O)O (centres unmarked) [Compound 199, 3-(2-(4-(benzyloxy)phenyl)-5H-pyrrolo[3,4-b]pyridin-6(7H)-yl)-2-methylpropanoic acid]	–	–	–
